# Test results: US8759390B2, “Chromene modulators of chemokine receptor activity” (Bristol-Myers Squibb Company, priority 2008, dated 2014)
# Structures can show the parent of a compound that is named as a salt.
# Molecular target: T1, CCR2 (Homo sapiens, UniProt P41597)
# T1 construct: THP-1 human monocytic leukemic cell line, which expresses endogenous CCR2; endogenous in cells; host or cells: THP-1 human monocytic leukemia cells, or human PBMC / human monocytes
# T1 sequence (P41597 1-360 isoform P41597-2): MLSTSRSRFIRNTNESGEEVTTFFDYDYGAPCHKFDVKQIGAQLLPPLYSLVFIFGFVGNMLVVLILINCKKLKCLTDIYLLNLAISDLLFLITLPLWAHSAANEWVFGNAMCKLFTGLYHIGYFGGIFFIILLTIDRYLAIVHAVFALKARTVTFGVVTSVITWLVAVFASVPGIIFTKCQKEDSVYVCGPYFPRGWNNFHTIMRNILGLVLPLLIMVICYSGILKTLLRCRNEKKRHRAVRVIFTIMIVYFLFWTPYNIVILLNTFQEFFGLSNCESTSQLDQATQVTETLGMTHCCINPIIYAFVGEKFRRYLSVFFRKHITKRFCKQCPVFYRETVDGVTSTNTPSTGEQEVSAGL
# Test: CCR2 binding (125I-human MCP-1 competition on human PBMC / THP-1 cells)
# Details: n = 1 unless otherwise noted; tested in one of the assays described
# Description: Antagonism of MCP-1 Binding to Human PBMC
# Millipore filter plates (#MABVN1250) are treated with 100 μl of binding buffer (0.5% bovine serum albumin, 20 mM HEPES buffer and 5 mM magnesium chloride in RPMI 1640 media) for thirty minutes at room temperature. To measure binding, 50 μl of binding buffer, with or without a known concentration compound, is combined with 50 μl of ^125-I labeled human MCP-1 (to give a final concentration of […] radioligand) and 50 μl of binding buffer containing 5×10^5 cells. Cells used for such binding assays can include human peripheral blood mononuclear cells isolated by Ficoll-Hypaque gradient centrifugation, human monocytes (Weiner et al., J. Immunol. Methods. 1980, 36, 89), or the THP-1 cell line which expresses the endogenous receptor. The mixture of compound, cells and radioligand are incubated at room temperature for thirty minutes. Plates are placed onto a vacuum manifold, vacuum applied, and the plates washed three times with binding buffer containing 0.5M NaCl. The plastic skirt is removed from the plate, the plate allowed to air dry, the wells punched out and counted. The percent inhibition of binding is calculated using the total counts obtained in the absence of any competing compound and the background binding determined by addition of 100 nM MCP-1 in place of the test compound.
# THP-1 Monocytic Cell Binding: Whole Cell-Based Assay
# The human CCR2 binding assay was also established with the THP-1 human monocytic leukemic cell line, which expresses endogenous CCR2, using ^125I-human MCP-1 as the tracer ligand. Radioligand competition binding assays were used for assessment of binding affinity of test compounds to the CCR2 receptor. For radioligand competition studies, 100 μl containing 2.5×10^5 THP-1 cells/well (in assay buffer containing 50 mM HEPES, pH7.4, 5mM MgCl2, 1 mM CaCl2 and 0.5% BSA) were added to 96-well assay plates containing the test compounds in 3-fold serial dilution, with final concentrations ranging from 5 μM to […]. Subsequently, 50 μl ^125I-MCP-1 radioligand at a final concentration of 0.2 nM in assay buffer were added to the reaction. After a 90 minute incubation period at room temperature, the binding reaction was terminated by harvesting on GF/B filter plates (PerkinElmer Cat. No. 6005177) followed by washing with ice-cold wash buffer (50 mM HEPES, pH 7.4, 0.1% BSA, 0.5 M NaCl) to remove unbound ligand. After washing, the plate was dried for 45 minutes at 60° C. followed by addition of 40 μl MicroScint 20 scintillation fluid, sealed and analyzed by the Packard TopCount reader. Non-specific binding was determined in the presence of 10 μM (a molar excess of […]) of an in-house CCR2 small molecule antagonist (CCR2 IC50=2 nM). Specific binding of ^125I-MCP-1 was calculated as the difference between total and non-specific binding. The competition data was plotted as a percentage inhibition of radioligand specific bound in the absence of test compound (percent of total signal). After correcting for non-specific binding, IC50 values were determined The IC50 is defined as the concentration of test compound required to reduce ^125I-MCP-1 specific binding by 50% and was calculated using the four parameter logistic equation to fit the normalized data.
row,Structure (SMILES),Ki
1,"O=C(O)C1=Cc2ccccc2OC1c1cccc(Br)c1 (racemic) [Example 5-16, 2-(3-bromophenyl)-2H-chromene-3-carboxylic acid]",1700 nM
2,"O=C(O)C1=Cc2ccccc2OC1c1cccc([N+](=O)[O-])c1 (racemic) [Example 5-12, 2-(3-nitrophenyl)-2H-chromene-3-carboxylic acid]",2800 nM
3,"O=C(O)C1=Cc2ccccc2OC1c1ccncc1 (racemic) [Example 5-3, 2-(pyridin-4-yl)-2H-chromene-3-carboxylic acid trifluoroacetic acid salt]",1800 nM
4,"O=C(O)C1=Cc2ccccc2OC1c1ccc2ccccc2c1 (racemic) [Example 5-4, 2-(naphthalen-2-yl)-2H-chromene-3-carboxylic acid]",1800 nM
5,"O=C(O)C1=Cc2ccccc2OC1c1ccc(Cl)c2ccccc12 (racemic) [Example 5-2, 2-(4-chloronaphthalen-1-yl)-2H-chromene-3-carboxylic acid]",1900 nM
6,"O=C(O)C1=Cc2ccccc2OC1c1cccc(Cl)c1Cl (racemic) [Example 5-26, 2-(2,3-dichlorophenyl)-2H-chromene-3-carboxylic acid]",2600 nM
7,"O=C(O)C1=Cc2ccccc2OC1c1cc(Cl)cc(Cl)c1 (racemic) [Example 2-4, 2-(3,5-dichlorophenyl)-2H-chromene-3-carboxylic acid]",4500 nM
8,"O=C(O)C1=Cc2ccccc2OC1c1ccc2c(c1)OCO2 (racemic) [Example 3, 2-(benzo[d][1,3]dioxol-5-yl)-2H-chromene-3-carboxylic acid]",1100 nM
9,"O=C(O)C1=Cc2ccccc2OC1c1ccc(Cl)c(Cl)c1 (single isomer, unassigned; (+)) [Example 6b, (+)-2-(3,4-dichlorophenyl)-2H-chromene-3-carboxylic acid]",1700 nM
10,"Cc1ccc(C2Oc3ccccc3C=C2C(=O)O)cc1 (racemic) [Example 5-19, 2-(4-methylphenyl)-2H-chromene-3-carboxylic acid]",4500 nM
11,"O=C(O)C1=Cc2ccccc2OC1c1ccc(Cl)nc1 (racemic) [Example 7-2, 2-(6-chloropyridin-3-yl)-2H-chromene-3-carboxylic acid]",4500 nM
12,"O=C(O)C1=Cc2ccccc2OC1c1cccc(C(F)(F)F)c1 (racemic) [Example 5-9, 2-(3-trifluoromethylphenyl)-2H-chromene-3-carboxylic acid]",1600 nM
13,"O=C(O)C1=Cc2ccccc2OC1c1cccc2ccccc12 (racemic) [Example 5-5, 2-(naphthalen-1-yl)-2H-chromene-3-carboxylic acid]",1700 nM
14,"Cc1cccc(C2Oc3ccccc3C=C2C(=O)O)c1 (racemic) [Example 5-20, 2-(3-methylphenyl)-2H-chromene-3-carboxylic acid]",4200 nM
15,"CCC1(c2ccc(Cl)c(Cl)c2)Oc2ccccc2C=C1C(=O)O (racemic) [Example 4-2, 2-(3,4-dichlorophenyl)-2-ethyl-2H-chromene-3-carboxylic acid]",1200 nM
16,"O=C(O)C1=Cc2ccccc2OC1c1cccc(F)c1 (racemic) [Example 5-6, 2-(3-fluorophenyl)-2H-chromene-3-carboxylic acid]",5700 nM
17,"O=C(O)C1=Cc2ccccc2OC1c1ccc(Cl)cc1 (racemic) [Example 2-2, 2-(4-chlorophenyl)-2H-chromene-3-carboxylic acid]",950 nM
18,"O=C(O)C1=Cc2ccccc2OC1c1cccc(Cl)c1 (racemic) [Example 1, 2-(3-chlorophenyl)-2H-chromene-3-carboxylic acid]",2000 nM
19,"COc1ccc(C2Oc3ccccc3C=C2C(=O)O)cc1 (racemic) [Example 2-3, 2-(4-methoxyphenyl)-2H-chromene-3-carboxylic acid]",5300 nM
20,"O=C(O)C1=Cc2ccccc2OC1c1ccc(C(F)(F)F)cc1 (racemic) [Example 5-10, 2-(4-trifluoromethylphenyl)-2H-chromene-3-carboxylic acid]",920 nM
21,"O=C(O)C1=Cc2ccccc2OC1c1ccc2ccccc2n1 (racemic) [Example 5-22, 2-(quinolin-2-yl)-2H-chromene-3-carboxylic acid]",2100 nM
22,"O=C(O)C1=Cc2ccc3ccccc3c2OC1c1ccc(Cl)c(Cl)c1 (racemic) [Example 9-3, 2-(3,4-dichlorophenyl)-2H-benzo[h]chromene-3-carboxylic acid]",1200 nM
23,"O=C(O)C1=Cc2ccccc2OC1c1cnc2ccccc2c1 (racemic) [Example 5-23, 2-(quinolin-3-yl)-2H-chromene-3-carboxylic acid]",4300 nM

# Now those with a lower Ki, led by results:
row,Ki,Structure (SMILES)
1,570 nM,"O=C(O)C1=Cc2ccccc2OC1c1cnc(Cl)c(Cl)c1 (racemic) [Example 7-3, 2-(5,6-dichloropyridin-3-yl)-2H-chromene-3-carboxylic acid]"
2,430 nM,"O=C(O)C1=Cc2ccccc2OC1c1ccc(Br)cc1 (racemic) [Example 5-15, 2-(4-bromophenyl)-2H-chromene-3-carboxylic acid]"
3,560 nM,"O=C(O)C1=Cc2ccccc2OC1c1ccc(F)c(Cl)c1 (racemic) [Example 5-8, 2-(3-chloro-4-fluorophenyl)-2H-chromene-3-carboxylic acid]"
4,720 nM,"O=C(O)C1=Cc2ccccc2OC1c1ccc(C(F)(F)F)c(F)c1 (racemic) [Example 5-18, 2-(3-fluoro-4-trifluoromethylphenyl)-2H-chromene-3-carboxylic acid]"
5,360 nM,"COc1ccc2c(c1)C=C(C(=O)O)C(c1ccc(Cl)c(Cl)c1)O2 (racemic) [Example 8, 2-(3,4-dichlorophenyl)-6-methoxy-2H-chromene-3-carboxylic acid]"
6,390 nM,"O=C(O)C1=Cc2ccccc2OC1c1ccc(C(F)(F)F)c(Cl)c1 (racemic) [Example 7-5, 2-(3-chloro-4-trifluoromethyl-phenyl)-2H-chromene-3-carboxylic acid]"
7,340 nM,"O=C(O)C1=Cc2cc(F)ccc2OC1c1ccc(Cl)c(Cl)c1 (racemic) [Example 9-4, 2-(3,4-dichlorophenyl)-6-fluoro-2H-chromene-3-carboxylic acid]"
8,85 nM,"O=C(O)C1=Cc2ccccc2OC1c1ccc(Br)c(Br)c1 (racemic) [Example 5-17, 2-(3,4-dibromophenyl)-2H-chromene-3-carboxylic acid]"
9,230 nM,"O=C(O)C1=Cc2ccccc2OC1c1ccc(Cl)c([N+](=O)[O-])c1 (racemic) [Example 5-13, 2-(3-nitro-4-chlorophenyl)-2H-chromene-3-carboxylic acid]"
10,170 nM,"O=C(O)C1=Cc2ccccc2OC1c1ccc(Cl)c(Br)c1 (racemic) [Example 7-4, 2-(3-bromo-4-chlorophenyl)-2H-chromene-3-carboxylic acid]"
11,300 nM,"O=C(O)C1=Cc2cc(Cl)ccc2OC1c1ccc(Cl)c(Cl)c1 (racemic) [Example 9-2, 2-(3,4-dichlorophenyl)-6-chloro-2H-chromene-3-carboxylic acid]"
12,350 nM,"O=C(O)C1=Cc2ccc(F)cc2OC1c1ccc(Cl)c(Cl)c1 (racemic) [Example 9-1, 2-(3,4-dichlorophenyl)-7-fluoro-2H-chromene-3-carboxylic acid]"
13,300 nM,"COc1ccc2c(c1)OC(c1ccc(Cl)c(Cl)c1)C(C(=O)O)=C2 (racemic) [Example 9-6, 2-(3,4-dichlorophenyl)-7-methoxy-2H-chromene-3-carboxylic acid]"
